How the values were obtained:
Assay in all cases: IC50 for competition of protein binding to Kinobeads
Details in all cases: assay detail: Kinobeads competition in P. falciparum blood-stage lysate
[1] = target: UniProt P61074
[2] = target: UniProt Q8ILQ7
[3] = target: UniProt C0H564
[4] = target: UniProt Q8IBM9
[5] = target: UniProt Q8I2P8
[6] = target: UniProt Q8IJX3
[7] = target: UniProt Q8I1V0
[8] = target: UniProt Q8IHR4
[9] = target: UniProt Q8IAU1
[10] = target: UniProt Q76NM3
[11] = target: UniProt Q8IHZ9
UniProt Q8IHZ9, sequence (Q8IHZ9 whole entry): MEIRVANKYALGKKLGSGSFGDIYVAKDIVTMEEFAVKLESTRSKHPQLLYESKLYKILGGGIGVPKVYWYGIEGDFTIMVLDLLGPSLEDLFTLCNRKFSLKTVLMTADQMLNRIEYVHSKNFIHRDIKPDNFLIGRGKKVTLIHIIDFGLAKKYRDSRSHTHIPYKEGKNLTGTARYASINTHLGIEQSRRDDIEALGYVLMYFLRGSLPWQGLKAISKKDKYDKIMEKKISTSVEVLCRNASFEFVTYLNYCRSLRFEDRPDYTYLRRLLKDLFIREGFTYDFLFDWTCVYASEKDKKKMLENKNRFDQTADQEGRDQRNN

[12] = target: UniProt C6KT03
[13] = target: UniProt Q7K6A0
[14] = target: UniProt O97241
[15] = target: UniProt O77358
[16] = target: UniProt Q8IAW5
[17] = target: UniProt Q8I574
[18] = target: UniProt Q8I367
[19] = target: UniProt C6KT96
[20] = target: UniProt Q8IIG6
[21] = target: UniProt C6KT19
[22] = target: UniProt Q7KQL3
UniProt Q7KQL3, sequence (Q7KQL3 whole entry): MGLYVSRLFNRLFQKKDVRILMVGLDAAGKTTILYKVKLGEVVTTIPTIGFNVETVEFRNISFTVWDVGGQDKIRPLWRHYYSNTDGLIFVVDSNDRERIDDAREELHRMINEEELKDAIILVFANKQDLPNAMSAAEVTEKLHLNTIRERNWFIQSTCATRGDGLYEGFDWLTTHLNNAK

[23] = target: UniProt Q8IL13
[24] = target: UniProt Q8IIJ6
UniProt Q8IIJ6, sequence (Q8IIJ6 whole entry): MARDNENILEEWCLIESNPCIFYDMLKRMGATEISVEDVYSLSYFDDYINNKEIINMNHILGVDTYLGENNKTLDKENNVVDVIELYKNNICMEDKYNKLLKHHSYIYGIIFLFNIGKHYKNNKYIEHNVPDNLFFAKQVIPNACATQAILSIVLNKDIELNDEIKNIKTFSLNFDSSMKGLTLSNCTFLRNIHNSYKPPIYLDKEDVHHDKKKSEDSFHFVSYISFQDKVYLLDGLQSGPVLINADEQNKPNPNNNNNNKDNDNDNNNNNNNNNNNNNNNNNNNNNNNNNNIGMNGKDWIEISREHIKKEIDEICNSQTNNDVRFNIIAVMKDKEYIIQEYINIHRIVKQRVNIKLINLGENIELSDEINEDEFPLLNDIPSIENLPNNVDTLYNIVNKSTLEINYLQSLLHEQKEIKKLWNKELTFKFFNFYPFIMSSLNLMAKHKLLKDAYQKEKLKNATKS

[25] = target: UniProt Q8IKB0
[26] = target: UniProt Q8I3Y9
[27] = target: UniProt Q8IM55
[28] = target: UniProt Q8I5E2
[29] = target: UniProt O77328
[30] = target: UniProt Q8IB78
[31] = target: UniProt Q8I512
[32] = target: UniProt Q8IJC7
[33] = target: UniProt Q8I5F9
[34] = target: UniProt Q76NL8
UniProt Q76NL8, sequence (Q76NL8 whole entry): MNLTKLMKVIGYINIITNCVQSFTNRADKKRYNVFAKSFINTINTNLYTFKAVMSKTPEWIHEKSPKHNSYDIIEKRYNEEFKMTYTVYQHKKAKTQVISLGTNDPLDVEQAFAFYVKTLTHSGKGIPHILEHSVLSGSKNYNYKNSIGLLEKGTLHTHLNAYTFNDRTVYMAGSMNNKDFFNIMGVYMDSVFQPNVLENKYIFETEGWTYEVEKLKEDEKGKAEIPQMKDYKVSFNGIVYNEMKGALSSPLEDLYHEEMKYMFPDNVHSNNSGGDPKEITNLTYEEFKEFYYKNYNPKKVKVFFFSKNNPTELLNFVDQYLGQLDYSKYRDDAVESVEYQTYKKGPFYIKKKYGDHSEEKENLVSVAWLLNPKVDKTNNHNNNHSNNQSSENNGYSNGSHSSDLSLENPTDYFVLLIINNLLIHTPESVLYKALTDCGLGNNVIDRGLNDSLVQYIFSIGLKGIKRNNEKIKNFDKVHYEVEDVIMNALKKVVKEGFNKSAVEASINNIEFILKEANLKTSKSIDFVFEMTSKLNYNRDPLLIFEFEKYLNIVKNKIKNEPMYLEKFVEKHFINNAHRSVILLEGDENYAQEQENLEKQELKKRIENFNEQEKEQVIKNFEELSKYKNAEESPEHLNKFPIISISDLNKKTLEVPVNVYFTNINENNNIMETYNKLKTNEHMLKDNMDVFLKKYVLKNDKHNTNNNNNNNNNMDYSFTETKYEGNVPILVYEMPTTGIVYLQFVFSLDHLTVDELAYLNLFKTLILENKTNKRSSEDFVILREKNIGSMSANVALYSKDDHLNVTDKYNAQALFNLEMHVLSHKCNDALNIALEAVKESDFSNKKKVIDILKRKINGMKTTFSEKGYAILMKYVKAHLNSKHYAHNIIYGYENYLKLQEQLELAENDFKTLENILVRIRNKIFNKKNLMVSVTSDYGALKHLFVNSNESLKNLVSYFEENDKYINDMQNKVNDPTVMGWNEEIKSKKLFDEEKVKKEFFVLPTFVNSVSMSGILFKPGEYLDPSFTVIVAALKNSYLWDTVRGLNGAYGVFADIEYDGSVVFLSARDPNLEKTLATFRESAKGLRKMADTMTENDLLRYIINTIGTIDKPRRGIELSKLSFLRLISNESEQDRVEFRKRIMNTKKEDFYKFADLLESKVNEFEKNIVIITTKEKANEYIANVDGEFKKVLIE

[35] = target: UniProt Q8I3W0
[36] = target: UniProt Q8IL58
[37] = target: UniProt C0H4L1
[38] = target: UniProt Q8I0P6
[39] = target: UniProt Q8IC33
[40] = target: UniProt Q8IDZ6
[41] = target: UniProt Q8I388
[42] = target: UniProt Q8IAR7
[43] = target: UniProt Q8IKS4
[44] = target: UniProt Q8IBP8
[45] = target: UniProt Q8I6S4
[46] = target: UniProt Q8ILY8
[47] = target: UniProt Q8IDM2
[48] = target: UniProt Q8I566
UniProt Q8I566, sequence (Q8I566 whole entry): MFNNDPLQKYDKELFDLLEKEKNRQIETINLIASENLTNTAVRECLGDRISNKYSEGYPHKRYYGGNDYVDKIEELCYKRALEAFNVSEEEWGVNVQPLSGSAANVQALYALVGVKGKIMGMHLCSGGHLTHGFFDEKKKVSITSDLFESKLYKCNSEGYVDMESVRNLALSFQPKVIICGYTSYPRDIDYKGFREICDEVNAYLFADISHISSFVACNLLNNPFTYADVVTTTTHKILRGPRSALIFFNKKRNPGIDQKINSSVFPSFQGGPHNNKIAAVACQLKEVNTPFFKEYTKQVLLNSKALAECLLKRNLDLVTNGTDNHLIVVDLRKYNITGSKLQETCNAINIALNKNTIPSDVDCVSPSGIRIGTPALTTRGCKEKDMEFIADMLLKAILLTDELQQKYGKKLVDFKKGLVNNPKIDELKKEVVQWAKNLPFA

[49] = target: UniProt Q8I5Q6
[50] = target: UniProt Q8IDF6
UniProt Q8IDF6, sequence (Q8IDF6 whole entry): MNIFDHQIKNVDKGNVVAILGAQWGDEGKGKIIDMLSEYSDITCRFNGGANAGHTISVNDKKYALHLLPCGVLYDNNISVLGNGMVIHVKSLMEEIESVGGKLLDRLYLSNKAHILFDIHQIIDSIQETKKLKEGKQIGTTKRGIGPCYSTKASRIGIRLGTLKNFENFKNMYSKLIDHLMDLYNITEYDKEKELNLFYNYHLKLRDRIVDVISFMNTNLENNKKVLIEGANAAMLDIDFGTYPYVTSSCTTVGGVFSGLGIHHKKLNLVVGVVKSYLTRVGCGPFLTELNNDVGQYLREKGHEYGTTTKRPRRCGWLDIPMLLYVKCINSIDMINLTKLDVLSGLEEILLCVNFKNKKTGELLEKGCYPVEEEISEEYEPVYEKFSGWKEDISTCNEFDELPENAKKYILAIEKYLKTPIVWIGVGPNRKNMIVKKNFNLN

[51] = target: UniProt C0H551
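Further: native unpurified kinases from lysate captured on beads bearing immobilized kinase inhibitors, with bead-bound kinases quantified by mass spectrometry across compound doses.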

UniProt Q8ILQ7, sequence (Q8ILQ7 whole entry): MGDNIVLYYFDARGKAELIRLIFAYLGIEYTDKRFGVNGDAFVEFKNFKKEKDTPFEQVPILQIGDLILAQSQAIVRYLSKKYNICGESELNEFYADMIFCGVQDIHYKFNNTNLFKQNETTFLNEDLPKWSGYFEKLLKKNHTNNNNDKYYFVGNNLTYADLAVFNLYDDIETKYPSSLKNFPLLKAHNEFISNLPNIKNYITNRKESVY
UniProt P61074, sequence (P61074 whole entry): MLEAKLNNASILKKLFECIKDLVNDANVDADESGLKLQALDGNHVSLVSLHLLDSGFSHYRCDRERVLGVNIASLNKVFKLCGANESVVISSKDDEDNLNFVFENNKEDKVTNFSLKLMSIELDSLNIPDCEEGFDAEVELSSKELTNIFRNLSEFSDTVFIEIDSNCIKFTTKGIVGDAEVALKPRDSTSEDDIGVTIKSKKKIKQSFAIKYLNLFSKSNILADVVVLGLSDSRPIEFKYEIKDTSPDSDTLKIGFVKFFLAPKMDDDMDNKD

With `O=c1[nH]c2ccc(Cl)cc2c(NC2CN3CCC2CC3)c1-c1nc2ccccc2[nH]1` (stereo unspecified) [CHIR-124] the IC50 [1] was > 20 µM, the IC50 [2] was > 20 µM and the IC50 [3] was > 20 µM. The IC50 [4] was > 20 µM, the IC50 [5] was > 20 µM and the IC50 [6] was > 20 µM. The IC50 [7] was > 20 µM, the IC50 [8] was > 20 µM and the IC50 [9] was > 20 µM. For the same molecule, the IC50 [10] was > 20 µM, the IC50 [11] was > 20 µM and the IC50 [12] was > 20 µM. For the same molecule, the IC50 [13] was 0.865 µM, the IC50 [14] was > 20 µM and the IC50 [15] was > 20 µM. The IC50 [16] was > 20 µM, the IC50 [17] was > 20 µM and the IC50 [18] was > 20 µM. For the same molecule, the IC50 [19] was > 20 µM, the IC50 [20] was > 20 µM and the IC50 [21] was > 20 µM. For the same molecule, the IC50 [22] was > 20 µM, the IC50 [23] was > 20 µM and the IC50 [24] was > 20 µM. The IC50 [25] was > 20 µM, the IC50 [26] was > 20 µM and the IC50 [27] was > 20 µM. For the same molecule, the IC50 [28] was > 20 µM, the IC50 [29] was > 20 µM and the IC50 [30] was > 20 µM. The IC50 [31] was > 20 µM, the IC50 [32] was > 20 µM and the IC50 [33] was > 20 µM. The IC50 [34] was > 20 µM, the IC50 [35] was > 20 µM and the IC50 [36] was > 20 µM. The IC50 [37] was > 20 µM, the IC50 [38] was > 20 µM and the IC50 [39] was > 20 µM. For the same molecule, the IC50 [40] was > 20 µM, the IC50 [41] was > 20 µM and the IC50 [42] was > 20 µM. The IC50 [43] was > 20 µM, the IC50 [44] was > 20 µM and the IC50 [45] was > 20 µM. The IC50 [46] was > 20 µM, the IC50 [47] was > 20 µM and the IC50 [48] was > 20 µM. The IC50 [49] was > 20 µM, the IC50 [50] was > 20 µM and the IC50 [51] was > 20 µM.
